Test results from PubChem BioAssay (NCI).
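Where inhibition never reached the appropriate level, the endpoint shown equals the highest concentration tested. Otherwise, values were interpolated linearly from a five-concentration, 48-hour dose response in 96-well plates. GI50: concentration for 50% inhibition of growth. TGI: concentration producing complete growth inhibition.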

Experiments:
Test in all cases: DTP human tumour cell line panel, 48 h
[1] = test system: A498 renal
[2] = test system: BT-549 breast
[3] = test system: PC-3 prostate
[4] = test system: MDA-MB-231 breast
[5] = test system: U251 CNS
[6] = test system: EKVX NSCLC
[7] = test system: DU-145 prostate
[8] = test system: OVCAR-4 ovarian
[9] = test system: SF-295 CNS
[10] = test system: OVCAR-8 ovarian
[11] = test system: HL-60(TB) leukemia
[12] = test system: NCI-H226 lung
[13] = test system: T-47D breast
[14] = test system: SF-268 CNS
[15] = test system: HOP-92 NSCLC
[16] = test system: UACC-62 melanoma
[17] = test system: SK-MEL-5 melanoma
[18] = test system: K-562 leukemia
[19] = test system: CAKI-1 renal
[20] = test system: M14 melanoma
[21] = test system: SK-OV-3 ovarian
[22] = test system: COLO 205 colon
[23] = test system: HS 578T breast
[24] = test system: HOP-62 NSCLC
[25] = test system: TK-10 renal
[26] = test system: KM12 colon
[27] = test system: UACC-257 melanoma
[28] = test system: ACHN renal
[29] = test system: HCC-2998 colon
[30] = test system: UO-31 renal
[31] = test system: MCF7 breast
[32] = test system: LOX IMVI melanoma
[33] = test system: OVCAR-3 ovarian
[34] = test system: SK-MEL-2 melanoma
[35] = test system: SNB-19 CNS
[36] = test system: NCI-H460 lung
[37] = test system: A549 NSCLC
[38] = test system: OVCAR-5 ovarian
[39] = test system: NCI/ADR-RES ovarian
[40] = test system: MOLT-4 leukemia
[41] = test system: NCI-H522 lung
[42] = test system: CCRF-CEM leukemia
[43] = test system: SNB-75 CNS
[44] = test system: NCI-H23 lung
[45] = test system: IGROV1 ovarian
[46] = test system: RPMI-8226 leukemia
[47] = test system: SF-539 CNS
[48] = test system: HCT-116 colon
[49] = test system: SN12C renal
[50] = test system: SK-MEL-28 melanoma
[51] = test system: MDA-MB-468 breast
[52] = test system: MALME-3M melanoma
[53] = test system: HT29 colon
[54] = test system: 786-0 renal
[55] = test system: RXF 393 renal
[56] = test system: SW-620 colon
[57] = test system: MDA-MB-435
[58] = test system: HCT-15 colon
[59] = test system: SR leukemia

`O=C(c1ccccc1)c1ccc2nc(-c3ccccc3Br)[nH]c2c1` gave a GI50 [1] of 17.3 µM, a TGI [1] of 33 µM and a GI50 [2] of 1.53 µM. It also gave a TGI [2] of 3.15 µM, a GI50 [3] of 2.48 µM and a TGI [3] of 10.8 µM. It also gave a GI50 [4] of 4.84 µM, a TGI [4] of 19.5 µM and a GI50 [5] of 2 µM. It also gave a TGI [5] of 4.59 µM, a GI50 [6] of 2.11 µM and a TGI [6] of 4.92 µM. For the same compound, the GI50 [7] was 4.33 µM, the TGI [7] was 15.4 µM and the GI50 [8] was 3.72 µM. It also gave a TGI [8] of 13.7 µM, a GI50 [9] of 5.54 µM and a TGI [9] of 18.2 µM. For the same compound, the GI50 [10] was 3.81 µM, the TGI [10] was 35.4 µM and the GI50 [11] was 2.04 µM. The TGI [11] was 6.05 µM, the GI50 [12] was 2.66 µM and the TGI [12] was 12.2 µM. The GI50 [13] was 2.89 µM, the TGI [13] was 11.3 µM and the GI50 [14] was 3.1 µM. It also gave a TGI [14] of 12.3 µM, a GI50 [15] of 2.08 µM and a TGI [15] of 6.48 µM. The GI50 [16] was 3.57 µM, the TGI [16] was 16.4 µM and the GI50 [17] was 1.85 µM. The TGI [17] was 3.79 µM, the GI50 [18] was 2.77 µM and the TGI [18] was greater than 100 µM. The GI50 [19] was 3.24 µM, the TGI [19] was 11.3 µM and the GI50 [20] was 1.77 µM. For the same compound, the TGI [20] was 4.38 µM, the GI50 [21] was 4.1 µM and the TGI [21] was 12.6 µM. For the same compound, the GI50 [22] was 2.04 µM, the TGI [22] was 3.94 µM and the GI50 [23] was 3.79 µM. For the same compound, the TGI [23] was 54 µM, the GI50 [24] was 3.23 µM and the TGI [24] was 8.5 µM. For the same compound, the GI50 [25] was 8.18 µM, the TGI [25] was 21.3 µM and the GI50 [26] was 4.64 µM. The TGI [26] was 18.5 µM, the GI50 [27] was 2.59 µM and the TGI [27] was 12.7 µM. The GI50 [28] was 2.27 µM, the TGI [28] was 5.67 µM and the GI50 [29] was 8.69 µM. The TGI [29] was 21.7 µM, the GI50 [30] was 4.95 µM and the TGI [30] was 17.4 µM. It also gave a GI50 [31] of 2.15 µM, a TGI [31] of 7.67 µM and a GI50 [32] of 2.45 µM. The TGI [32] was 10.4 µM, the GI50 [33] was 2.94 µM and the TGI [33] was 10.4 µM. The GI50 [34] was 2.01 µM, the TGI [34] was 4.92 µM and the GI50 [35] was 4.41 µM. It also gave a TGI [35] of 16.8 µM, a GI50 [36] of 4.22 µM and a TGI [36] of 19.8 µM. The GI50 [37] was 10.2 µM, the TGI [37] was 28.2 µM and the GI50 [38] was 2.48 µM. For the same compound, the TGI [38] was 5.7 µM, the GI50 [39] was 2.44 µM and the TGI [39] was 6.66 µM. The GI50 [40] was 2.21 µM, the TGI [40] was 11.5 µM and the GI50 [41] was 1.53 µM. It also gave a TGI [41] of 3.07 µM, a GI50 [42] of 2.24 µM and a TGI [42] of 15.9 µM. The GI50 [43] was 3.23 µM, the TGI [43] was 13.4 µM and the GI50 [44] was 2.08 µM. It also gave a TGI [44] of 6.5 µM, a GI50 [45] of 3.51 µM and a TGI [45] of 13.9 µM. It also gave a GI50 [46] of 2.65 µM, a TGI [46] of 11.8 µM and a GI50 [47] of 1.77 µM. The TGI [47] was 3.33 µM, the GI50 [48] was 2.31 µM and the TGI [48] was 8.15 µM. It also gave a GI50 [49] of 2.4 µM, a TGI [49] of 6.5 µM and a GI50 [50] of 3.69 µM. For the same compound, the TGI [50] was 14.7 µM, the GI50 [51] was 1.73 µM and the TGI [51] was 3.9 µM. It also gave a GI50 [52] of 2.11 µM, a TGI [52] of 6.35 µM and a GI50 [53] of 2.27 µM. It also gave a TGI [53] of 4.63 µM, a GI50 [54] of 2.37 µM and a TGI [54] of 4.77 µM. It also gave a GI50 [55] of 1.61 µM, a TGI [55] of 3.82 µM and a GI50 [56] of 3.33 µM. The TGI [56] was 13.2 µM, the GI50 [57] was 3.54 µM and the TGI [57] was 13.2 µM. The GI50 [58] was 1.74 µM, the TGI [58] was 3.78 µM and the GI50 [59] was 2.51 µM. It also gave a TGI [59] of 12.7 µM.
